SMILES strings stand for the structures.

The source of these data is ChEMBL document CHEMBL1124230, “Synthesis and anti-HIV activity of different sugar-modified pyrimidine and purine nucleosides” (1988).

For assay [1], the system named is Human immunodeficiency virus 1. The assay can be described thus: Dose required to inhibit cytopathic effect of human immunodeficiency virus replication in MT-4 cells. The class given is functional. Particulars: Human immunodeficiency virus 1, MT4; read-out: ED50 (the source's name).
Assay [2] concerns MT4. As to the kind of experiment: Cytotoxic dose required to reduce the viability of normal uninfected MT-4 cells. It counts as functional. Particulars: Homo sapiens, read-out: CD50 (the source's name).
The subject of assay [3] is MT4. The assay can be described thus: Ratio of CD50 to ED50 rvaluated for inhibition of HIV replication in MT-4 cells. It counts as functional.
A short description of assay [4]: Ratio of CD50 to ED50 evaluated for inhibition of HIV replication in MT-4 cells. The class given is functional, MT4.

In the case of `Nc1ncnc2c1ncn2[C@@H]1O[C@H](CO)C[C@@H]1O`, in assay [1], the EC50 was over 500 µM. In the assay on MT4 [2], the CC50 is over 500 µM.
Turning to `Cc1cn([C@H]2C[C@H](N=[N+]=[N-])[C@@H](CO)O2)c(=O)nc1N`, the EC50 in assay [1] stood at 1.8 µM. Moreover, the CC50 in the assay with MT4 [2] is over 1000 µM. The Selectivity index in the assay on MT4 [3] came to 555.
As for `[N-]=[N+]=N[C@H]1C[C@H](n2ccc(N)nc2=O)O[C@@H]1CO`, the EC50 in assay [1] worked out at 3.1 µM. Also, in the assay with MT4 [2], the CC50 was 34.1 µM. In the assay with MT4 [3], the Selectivity index came out at 11.
Consider `Nc1ncnc2c1ncn2[C@@H]1O[C@H](CO)[C@H]2O[C@H]21`, for which, in assay [1], the EC50 was over 500 µM. Also, the CC50 in the assay on MT4 [2] was over 500 µM.
Turning to `Nc1ncnc2c1ncn2[C@@H]1O[C@H](CO)[C@@H]2O[C@@H]21`, in assay [1], the EC50 is over 100 µM. Besides, the CC50 in the assay on MT4 [2] is over 100 µM.
Regarding `CNc1nc(=O)n(C2CC(N=[N+]=[N-])C(CO)O2)cc1C` (stereo not given), the EC50 in assay [1] stood at 17.3 µM. In addition, in the assay with MT4 [2], the CC50 is over 1000 µM. Besides, the Selectivity index in the assay with MT4 [3] is reported as over 58.
As for `O=c1ccn([C@H]2C[C@H](F)[C@@H](CO)O2)c(=O)[nH]1`, the EC50 in assay [1] turned out to be 0.04 µM. The CC50 in the assay with MT4 [2] came out at 16 µM. In addition, the Selectivity index in the assay with MT4 [3] amounted to 400.
`Nc1ncnc2c1ncn2C1OC(CO)CC1Br` (stereo not given): in assay [1], the EC50 was over 500 µM. The CC50 with MT4 [2] is over 500 µM.
For `C#CC1C(CO)OC(n2cc(C)c(=O)[nH]c2=O)C1O` (stereo not given), in assay [1], the EC50 is over 500 µM. Moreover, the CC50 in the assay on MT4 [2] was over 500 µM.
Regarding `Nc1ncnc2c1ncn2C1OC(CO)CC1Cl` (stereo not given), the EC50 in assay [1] is over 500 µM. Also, the CC50 in the assay on MT4 [2] was over 500 µM.
As for `CC(=O)SC1CC(n2cc(C)c(=O)[nH]c2=O)OC1CO` (stereo not given), the EC50 in assay [1] is 27 µM. Also, the CC50 in the assay with MT4 [2] came out at 29 µM. Moreover, the Selectivity index with MT4 [3] is recorded as 1.1.
The matching figures for `CNc1ccn(C2CC(N=[N+]=[N-])C(CO)O2)c(=O)n1` (stereo not given): 605 µM, over 1000 µM and over 1.6.
Consider `Nc1nc(N)c2ncn([C@H]3C[C@H](O)[C@@H](CO)O3)c2n1`, for which, in assay [1], the EC50 was over 125 µM. The CC50 in the assay with MT4 [2] was over 625 µM.
The matching figures for `Cc1cn([C@H]2C[C@H](OC(=S)Oc3ccccc3)[C@@H](CO)O2)c(=O)[nH]c1=O`: over 250 µM and over 250 µM.
Consider `Nc1nc(O)c2ncn(C3C=CC(CO)O3)c2n1` (stereo not given), for which the EC50 in assay [1] was over 5 µM. Besides, the CC50 in the assay on MT4 [2] was determined as 11 µM. Also, the Selectivity index in assay [4] is on record as over 2.2.
For `Cc1cn(C2OC(CO)C(C#N)C2O)c(=O)[nH]c1=O` (stereo not given), the EC50 in assay [1] is over 500 µM.
Regarding `Cc1cn([C@H]2C[C@H](SS[C@H]3C[C@H](n4cc(C)c(O)nc4=O)O[C@@H]3CO)[C@@H](CO)O2)c(=O)nc1O`, the EC50 in assay [1] came to 16 µM. The CC50 with MT4 [2] was found to be 34 µM. In addition, the Selectivity index with MT4 [3] worked out at 2.1.
The matching figures for `Cc1ccc(SC2CC(n3cc(C)c(=O)[nH]c3=O)OC2CO)cc1` (stereo not given): over 100 µM, 116 µM and under 1.2.
The matching figures for `Nc1nc(N)c2ncn(C3CC(F)C(CO)O3)c2n1` (stereo not given): 4.5 µM, 360 µM and 80.
As for `Nc1nc(O)c2ncn(C3CC(F)C(CO)O3)c2n1` (stereo not given), the EC50 in assay [1] is 2.4 µM. The CC50 in the assay with MT4 [2] is 237 µM. Also, in assay [4], the Selectivity index is 96.
With `CC1=CN(C2CC(N=[N+]=[N-])C(CO)O2)CN=C1NO` (stereo not given), the EC50 in assay [1] was 1.5 µM. For the same compound, the CC50 in the assay with MT4 [2] came to 92 µM. Also, the Selectivity index in the assay with MT4 [3] was 61.
The matching figures for `Cc1cn([C@H]2C[C@H](F)[C@@H](CO)O2)c(=O)[nH]c1=O` [ALOVUDINE]: 0.001 µM, 0.197 µM and 197.
Take `Nc1ncnc2c1ncn2[C@@H]1O[C@H](CO)C[C@H]1O` [CORDYCEPIN]: in assay [1], the EC50 is over 50 µM. In addition, the CC50 in the assay with MT4 [2] came to 45 µM. For the same compound, the Selectivity index with MT4 [3] is under 0.5.
`Nc1ncnc2c1ncn2[C@H]1C[C@H](O)[C@@H](CO)O1` [DEOXYADENOSINE]: the EC50 in assay [1] was over 100 µM. For the same compound, in the assay on MT4 [2], the CC50 was over 100 µM.
As for `Nc1nc(O)c2ncn([C@H]3C[C@H](O)[C@@H](CO)O3)c2n1` [DEOXYGUANOSINE], the EC50 in assay [1] was found to be 158 µM. Moreover, the CC50 in the assay on MT4 [2] was over 500 µM. Also, the Selectivity index in assay [4] came out at 3.1.
Take `[N-]=[N+]=N[C@H]1C[C@H](n2ccc(=O)[nH]c2=O)O[C@@H]1CO` [NAVURIDINE]: the EC50 in assay [1] was 0.36 µM. Also, in the assay with MT4 [2], the CC50 stood at 244 µM. The Selectivity index with MT4 [3] is on record as 677.
With `Cc1cn([C@H]2C[C@H](N=[N+]=[N-])[C@@H](CO)O2)c(=O)[nH]c1=O` [ZIDOVUDINE], the EC50 in assay [1] turned out to be 0.004 µM. Further, the CC50 in the assay with MT4 [2] amounted to 20 µM. For the same compound, in the assay on MT4 [3], the Selectivity index turned out to be 5000.
